This passage reports IC50 results from patent publication US8012975B2, “Antitumoral analogs of ET-743” (Pharma Mar, S.A., priority 2000, dated 2011).

In one experiment the test system is MEL-28. Description: Cytotoxic activity (M) panel, Melanoma Mel-28. As to conditions: Homo sapiens, SK-MEL-28, read-out: CYTOTOXIC ACTIVITY (M) Mel-28.
A further experiment deals with A549. As to the kind of experiment: Cytotoxic activity (M) panel, NSCL A549. The following applies: Homo sapiens, A549, read-out: CYTOTOXIC ACTIVITY (M) A549.
A further experiment deals with HT-29. Description: Cytotoxic activity (M) panel, Colon HT-29. The following applies: Homo sapiens, HT-29, read-out: CYTOTOXIC ACTIVITY (M) HT-29.
For a further experiment, the system named is LNCAP. As to the kind of experiment: Cytotoxic activity (M) panel, Prostate LNCAP. The following applies: Homo sapiens, read-out: CYTOTOXIC ACTIVITY (M) LNCAP.
Another experiment deals with 5637. Description: Cytotoxic activity (M) panel, Bladder 5637. As to conditions: read-out: CYTOTOXIC ACTIVITY (M) 5637.
For a further experiment, the system named is SW-694. As to the kind of experiment: Cytotoxic activity (M) panel, Fibrosarcoma SW-694. As to conditions: read-out: CYTOTOXIC ACTIVITY (M) SW-694.
For the next experiment, the system named is Hs746t. Description: Cytotoxic activity (M) panel, Gastric Hs746t. The following applies: Homo sapiens, read-out: CYTOTOXIC ACTIVITY (M) Hs746t.
For the next experiment, the system named is 786-O. Description: Cytotoxic activity (M) panel, Renal 786-O. As to conditions: Homo sapiens, 786-0, read-out: CYTOTOXIC ACTIVITY (M) 786-O.
The next experiment deals with SK-OV-3. Description: Cytotoxic activity (M) panel, Ovary SK-OV-3. As to conditions: Homo sapiens, SK-OV-3, read-out: CYTOTOXIC ACTIVITY (M) SK-OV-3.
The next experiment concerns MX-1. As to the kind of experiment: Cytotoxic activity (M) panel, Breast MX-1. As to conditions: Homo sapiens, MX1, read-out: CYTOTOXIC ACTIVITY (M) MX-1.
For a further experiment, the system named is DU-145. As to the kind of experiment: Cytotoxic activity (M) panel, Prostate DU-145. As to conditions: Homo sapiens, DU-145, read-out: CYTOTOXIC ACTIVITY (M) DU-145.
The next experiment concerns SK-HEP-1. As to the kind of experiment: Cytotoxic activity (M) panel, Liver SK-HEP-1. As to conditions: Homo sapiens, SK-HEP1, read-out: CYTOTOXIC ACTIVITY (M) SK-HEP-1.
The next experiment concerns PANC-1. Description: Cytotoxic activity (M) panel, Pancreas PANC-1. The following applies: Homo sapiens, PANC-1, read-out: CYTOTOXIC ACTIVITY (M) PANC-1.
The next experiment concerns CHSA. Description: Cytotoxic activity (M) panel, Chondrosarcoma CHSA. As to conditions: read-out: CYTOTOXIC ACTIVITY (M) CHSA.
The next experiment has as its system FADU. Description: Cytotoxic activity (M) panel, Pharnynx FADU. The following applies: Homo sapiens, read-out: CYTOTOXIC ACTIVITY (M) FADU.
Another experiment relates to PC3. Description: Cytotoxic activity (M) panel, Prostate PC3. The following applies: Homo sapiens, PC-3, read-out: CYTOTOXIC ACTIVITY (M) PC3.
The subject of another experiment is OSA-FH. Description: Cytotoxic activity (M) panel, Osteosarcoma OSA-FH. The following applies: read-out: CYTOTOXIC ACTIVITY (M) OSA-FH.
For another experiment, the system named is NCI-H187. Description: Cytotoxic activity (M) panel, SCL NCI-H187. The following applies: Homo sapiens, NCI-H187, read-out: CYTOTOXIC ACTIVITY (M) NCI-H187.
A further experiment has as its system Y-79. Description: Cytotoxic activity (M) panel, Retinoblastoma Y-79. As to conditions: Homo sapiens, Y79, read-out: CYTOTOXIC ACTIVITY (M) Y-79.

On to `COc1c(C)cc2c(c1O)[C@@H]1C3Cc4c(OC(C)=O)c(C)c5c(c4[C@H](CNC(=O)/C=C/c4cccc(C(F)(F)F)c4)N3[C@@H](O)[C@H](C2)N1C)OCO5` (some centres unmarked) [drawing 211], for which the IC50 in the experiment on MEL-28 was 2.6e-10 M; in the experiment on A549, 3.25e-09 M; in the experiment with HT-29, 7.84e-10 M; with LNCAP, 5.45e-10 M; in the experiment with 5637, 6.02e-10 M; in the experiment on SW-694 it was 9.91e-10 M. Further, the IC50 in the experiment on Hs746t is 7.9e-12 M; with 786-O, 6.58e-12 M; with SK-OV-3 it was 4.39e-11 M; in the experiment with MX-1 it was 1.65e-06 M; with DU-145, 5.73e-10 M; in the experiment with SK-HEP-1, 1.79e-12 M. Further, the IC50 in the experiment with PANC-1 worked out at 7.22e-11 M; with CHSA it was 3.24e-10 M; in the experiment on FADU, 5.41e-11 M; with PC3, 6.65e-09 M.
With `COc1c(C)cc2c(c1O)[C@@H]1C3Cc4c(OC(C)=O)c(C)c5c(c4[C@H](CNC(=O)[C@H](C)NC(=O)C(F)(F)F)N3[C@@H](O)[C@H](C2)N1C)OCO5` (some centres unmarked) [drawing 212], the IC50 with MEL-28 is 3.17e-09 M; with A549 it was 7.68e-06 M; with HT-29, 1.97e-08 M; with LNCAP, 2.17e-10 M; in the experiment with 5637 it was 3.42e-10 M; with OSA-FH it was 1.39e-09 M. For the same compound, the IC50 is 2.18e-09 M in the experiment on Hs746t; 1.59e-09 M in the experiment on 786-O; 1.02e-07 M in the experiment on SK-OV-3; 9.57e-10 M in the experiment with NCI-H187; 7.36e-10 M with Y-79; 1.83e-07 M in the experiment with DU-145. For the same compound, the IC50 in the experiment with SK-HEP-1 is 6.01e-11 M; in the experiment with PANC-1, 4.17e-09 M; in the experiment with CHSA, 6.77e-09 M; in the experiment on FADU, 1.58e-09 M; in the experiment on PC3 it was 2.15e-09 M.
For the compound `COc1c(C)cc2c(c1O)[C@@H]1C3Cc4c(OC(C)=O)c(C)c5c(c4[C@H](COC(=O)CCc4ccccc4)N3[C@@H](O)[C@H](C2)N1C)OCO5` (some centres unmarked) [drawing 235], the IC50 with MEL-28 came to 2.23e-08 M; in the experiment on A549, 8.22e-06 M; in the experiment with HT-29, 8.99e-09 M; in the experiment on 5637, 7.88e-10 M; in the experiment on OSA-FH it was 1.29e-09 M; with SW-694 it was 8.53e-06 M. Besides, the IC50 was determined as 2.95e-08 M in the experiment on Hs746t; 9.23e-10 M in the experiment on 786-O; 1.03e-08 M in the experiment with Y-79; 1.29e-09 M in the experiment with SK-HEP-1; 5.68e-10 M in the experiment on PANC-1; 1.55e-05 M in the experiment on CHSA. Moreover, the IC50 in the experiment with FADU stood at 5.4e-11 M; in the experiment on PC3, 7.71e-10 M.
For the compound `CCCC(=O)OC[C@H]1c2c(c(OC(C)=O)c(C)c3c2OCO3)CC2[C@H]3c4c(cc(C)c(OC)c4O)C[C@@H]([C@H](O)N21)N3C` (some centres unmarked) [drawing 236], the IC50 amounted to 1.25e-08 M with MEL-28; 8.49e-09 M with A549; 1.34e-08 M with HT-29; 3.29e-07 M in the experiment on LNCAP; 3.02e-08 M in the experiment with 5637; 5.01e-08 M in the experiment with OSA-FH. The IC50 with Hs746t worked out at 7.05e-07 M; in the experiment on 786-O it was 1.13e-08 M; in the experiment on SK-OV-3, 3.55e-08 M; with NCI-H187, 2.33e-10 M; with MX-1, 4.75e-08 M; with Y-79 it was 2.64e-09 M. For the same compound, the IC50 in the experiment with DU-145 was 1.17e-08 M; in the experiment on SK-HEP-1, 6.12e-08 M; in the experiment with PANC-1, 1.28e-08 M; in the experiment on CHSA, 2.95e-08 M; with FADU, 2.47e-08 M; in the experiment on PC3 it was 6.18e-10 M.
